Consider four molecules from patent US20050101612A1, “Use of indole-3-acetic acids in the treatment of asthma, copd and other diseases” (priority 2002, published 2005).

The target in data set [1] is T1, CRTh2 receptor (Homo sapiens, UniProt Q9Y5Y4).
T1 construct: expressed in transfected cells
T1 sequence (Q9Y5Y4 1-395): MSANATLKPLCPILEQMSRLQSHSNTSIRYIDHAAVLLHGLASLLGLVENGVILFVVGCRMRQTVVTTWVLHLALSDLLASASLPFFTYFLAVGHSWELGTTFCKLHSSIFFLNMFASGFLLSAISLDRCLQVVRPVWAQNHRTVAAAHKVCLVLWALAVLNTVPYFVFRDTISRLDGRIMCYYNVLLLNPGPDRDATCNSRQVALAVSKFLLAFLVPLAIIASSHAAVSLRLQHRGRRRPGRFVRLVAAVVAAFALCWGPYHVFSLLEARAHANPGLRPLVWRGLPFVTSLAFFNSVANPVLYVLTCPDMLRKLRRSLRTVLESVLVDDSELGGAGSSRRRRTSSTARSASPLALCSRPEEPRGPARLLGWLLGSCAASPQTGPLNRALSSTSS
Nature of the data set: Intracellular calcium mobilisation (FLIPR, inhibition of PGD2 response) in HEK-hrCRTh2-Gα16 cells. It counts as cell-based. As to conditions: antagonism of 2×p[A]50 PGD2, Cheng-Prusoff analysis, read-out: pA2 (converted). On the procedure:
Intracellular Calcium Mobilisation
Human Embryonic Kidney Cells co-transfected with both the CRTh2 receptor and Gα16 G-protein (HEK-hrCRTh2-Gα16) are routinely cultured as monolayers in Dulbecco's Modified Eagles Medium (DMEM; Sigma) supplemented with 10% (v:v) heat inactivated foetal bovine serum (New Zealand sourced; Hyclone), 1% (v:v) non-essential amino acids (Gibco BRL), 1% (v:v) penicillin/streptomycin (Gibco BRL), 2 mM L-glutamine (Gibco BRL) and grown under 1 mg/ml (v:v) Geneticin (Gibco BRL) antibiotic selection. Approximately 24 hours prior to the assay the cells are plated at a seeding density of 100,000 cells/well in 100 μl growth media into black walled 96 well Poly-D-Lysine coated plates (Becton Dickinson), with clear bottoms to allow cell inspection and fluorescence measurements from the bottom of each well. All cultures are maintained under standard tissue culture conditions (37° C. in a humidified atmosphere of 5% CO2).
To enable changes in intracellular calcium levels to be measured in HEK-hrCRTh2-Gα16 cells fluo-3AM is utilised as the fluorescent calcium indicator. A dye loading buffer is prepared which consists of a final concentration of 5 μM Fluo-3AM fluorescent cytoplasmic calcium indicator dye (Tef Labs), 2.2 μl/ml Pluronic F127 (Molecular Probes) to promote dye uptake, and 0.5 mM brilliant black (Sigma) to reduce background fluorescence in Balanced Salt Solution (BSS; 125 mM NaCl, 5.4mM KCl, 16.2 mM NaHCO3, 0.8 mM MgCl2, 1 mM CaCl2, 20 mM HEPES, 1 mM NaH2PO4, 5.5 mM D-(+)-Glucose, 0.1% BSA and pH 7.4 with NaOH). […]
Test compounds are made up at a stock concentration of 10 mM in DMSO. The compounds to be evaluated are then prepared, by serial dilution in BSS buffer, to the required concentrations for inhibition dose response curves to be constructed. […] This allows the potency agonist ([A]50) value to be determined for the HEK-hrCRTh2-Gα16 cells on any given day. Once the p[A]50 for PGD2 has been determined a separate assay plate containing 2×p[A]50 of PGD2 is prepared as the 2nd addition plate (or agonist plate). […]

`COc1ccc2c(c1)c(CC(=O)O)c(C)n2-c1cc(Oc2ccccc2)nc(Oc2ccccc2)n1` [Example 3, [1-(2,6-diphenoxypyrimidin-4-yl)-5-methoxy-2-methyl-1H-indol-3-yl]acetic acid] showed a melting point of 168 to 170 °C.

Take `Cc1ccc2c(c1)c(CC(=O)O)c(C)n2-c1cc(Oc2ccccc2)nc(Oc2ccccc2)n1` [[1-(2,6-diphenoxypyrimidin-4-yl)-2,5-dimethyl-1H-indol-3-yl]acetic acid]: the Kb in data set [1] is 158 nM.

As to `COc1ccc2c(c1)c(CC(=O)O)c(C)n2-c1cc(C)nc(-c2ccccc2)n1` [Example 1, [5-methoxy-2-methyl-1-(6-methyl-2-phenylpyrimidin4-yl)-1H-indol-3-yl]acetic acid], the melting point was 160 to 162 °C. In addition, the Kb in data set [1] was 316 nM.

`COc1ccc2c(c1)c(CC(=O)O)c(C)n2-c1nc2ccccc2s1` [Example 2, [1-(1,3-benzothiazol-2-yl)-5-methoxy-2-methyl-1H-indol-3-yl]acetic acid] gave a melting point of 158 to 160 °C. Moreover, the Kb in data set [1] is 316 nM.
